Consider 7 molecules from PubChem BioAssay (NCI).

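Where inhibition never reached the appropriate level, the endpoint shown equals the highest concentration tested. Otherwise, values were interpolated linearly from a five-concentration, 48-hour dose response in 96-well plates. GI50: concentration for 50% inhibition of growth. TGI marks complete inhibition of growth.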

Test systems include 786-0 renal; SF-268 CNS; HS 578T breast; COLO 205 colon; SK-OV-3 ovarian; MOLT-4 leukemia; CAKI-1 renal; T-47D breast; HOP-92 NSCLC; SK-MEL-2 melanoma.
What all share (experiment): growth of human tumour cells (NCI), 48 h

As for `Cc1cc2c(F)c(Oc3ncnc(Nc4ccc(N5C[C@@H](C)N[C@@H](C)C5)cc4)c3C#N)cc(F)c2[nH]1`, the GI50 with 786-0 renal is 1620 nM; with SF-268 CNS, 2070 nM; in the experiment with HS 578T breast it was 1770 nM; with COLO 205 colon it was 1680 nM; with SK-OV-3 ovarian it was 3910 nM; in the experiment with MOLT-4 leukemia, 1670 nM. Also, the GI50 with CAKI-1 renal is 2990 nM; in the experiment with T-47D breast, 1970 nM; in the experiment with HOP-92 NSCLC, 2070 nM; with SK-MEL-2 melanoma, 2200 nM. The TGI with 786-0 renal amounted to 3640 nM; in the experiment on SF-268 CNS, 8360 nM; in the experiment on HS 578T breast, 5400 nM; in the experiment with COLO 205 colon, 3580 nM; with SK-OV-3 ovarian it was 13700 nM; in the experiment with MOLT-4 leukemia it was 5440 nM. For the same molecule, the TGI in the experiment on CAKI-1 renal turned out to be 10900 nM; with T-47D breast, 5570 nM; in the experiment with HOP-92 NSCLC, 8850 nM; with SK-MEL-2 melanoma, 4670 nM.
With `COc1cnc2c(c1)C(=O)c1c-2n(CCCN2CCCC2)c(=O)c2cc([N+](=O)[O-])ccc12`, the GI50 is 26.6 nM in the experiment with 786-0 renal; 19.1 nM with SF-268 CNS; 1910 nM in the experiment with HS 578T breast; 35.4 nM with COLO 205 colon; 33.6 nM in the experiment with SK-OV-3 ovarian; less than 10 nM in the experiment with MOLT-4 leukemia. Also, the GI50 in the experiment on CAKI-1 renal is less than 10 nM; in the experiment on T-47D breast, 17.9 nM; in the experiment with HOP-92 NSCLC it was 554 nM; with SK-MEL-2 melanoma, 1010 nM. Further, the TGI in the experiment with 786-0 renal amounted to 152 nM; in the experiment with SF-268 CNS, 12800 nM; in the experiment on HS 578T breast it was 23200 nM; in the experiment on COLO 205 colon, 13800 nM; in the experiment with SK-OV-3 ovarian it was 843 nM; in the experiment with MOLT-4 leukemia it was 45.1 nM. In addition, the TGI in the experiment on CAKI-1 renal is 1460 nM; in the experiment with T-47D breast, 12800 nM; in the experiment on HOP-92 NSCLC, 15600 nM; in the experiment with SK-MEL-2 melanoma, 15900 nM.
In the case of `CC1=C([Te]c2ccccc2)C(=O)c2ccccc2C1=O`, the GI50 was 2010 nM with 786-0 renal; 383 nM with SF-268 CNS; 303 nM in the experiment with HS 578T breast; 457 nM with COLO 205 colon; 335 nM with SK-OV-3 ovarian; 287 nM with MOLT-4 leukemia. In addition, the GI50 is 974 nM in the experiment with CAKI-1 renal, 488 nM in the experiment with T-47D breast, 315 nM with HOP-92 NSCLC and 2370 nM in the experiment with SK-MEL-2 melanoma. In addition, the TGI in the experiment with 786-0 renal was 3960 nM; with SF-268 CNS, 1640 nM; with HS 578T breast, 2460 nM; with COLO 205 colon it was 1450 nM; with SK-OV-3 ovarian it was 1280 nM; with MOLT-4 leukemia, 1300 nM. Also, the TGI with CAKI-1 renal amounted to 3200 nM; in the experiment with T-47D breast, 2780 nM; in the experiment with HOP-92 NSCLC, 1390 nM; with SK-MEL-2 melanoma it was 5580 nM.
Take `Fc1cccc(COc2ccc(Nc3ncnc4onc(-c5ccccc5)c34)cc2)c1`: the GI50 in the experiment with 786-0 renal is 691 nM; with SF-268 CNS, 384 nM; with HS 578T breast, 97.4 nM; with COLO 205 colon it was 202 nM; in the experiment with SK-OV-3 ovarian, 459 nM; in the experiment on MOLT-4 leukemia it was 270 nM. Moreover, the GI50 with CAKI-1 renal is 573 nM; in the experiment on T-47D breast, 218 nM; in the experiment with HOP-92 NSCLC, 264 nM; with SK-MEL-2 melanoma, 426 nM. Besides, the TGI was 21200 nM with 786-0 renal; greater than 100000 nM in the experiment on SF-268 CNS; 2020 nM in the experiment on HS 578T breast; 787 nM in the experiment on COLO 205 colon; greater than 100000 nM in the experiment on SK-OV-3 ovarian; greater than 100000 nM in the experiment on MOLT-4 leukemia. Moreover, the TGI was greater than 100000 nM with CAKI-1 renal, greater than 100000 nM with T-47D breast, 62800 nM in the experiment with HOP-92 NSCLC and greater than 100000 nM in the experiment on SK-MEL-2 melanoma.
Take `COc1cc(CCC[P+](c2ccccc2)(c2ccccc2)c2ccccc2)c(OC)c2c1OCO2`: the GI50 with 786-0 renal was 3440 nM; with SF-268 CNS, 2130 nM; in the experiment on HS 578T breast, 1740 nM; with COLO 205 colon it was 907 nM; in the experiment with SK-OV-3 ovarian, 2020 nM; with MOLT-4 leukemia, 3330 nM. For the same molecule, the GI50 was 2420 nM with CAKI-1 renal, 419 nM with T-47D breast, 1150 nM in the experiment on HOP-92 NSCLC and 1900 nM with SK-MEL-2 melanoma. For the same molecule, the TGI in the experiment on 786-0 renal was 16500 nM; in the experiment on SF-268 CNS, 13100 nM; in the experiment on HS 578T breast it was 8540 nM; in the experiment with COLO 205 colon, 3380 nM; with SK-OV-3 ovarian it was 6410 nM; in the experiment with MOLT-4 leukemia, 18900 nM. Moreover, the TGI with CAKI-1 renal turned out to be 7180 nM; in the experiment on T-47D breast, 14700 nM; with HOP-92 NSCLC it was 6880 nM; in the experiment with SK-MEL-2 melanoma, 10500 nM.
Regarding `COC[C@H](NC(=O)c1cnc(C)s1)C(=O)N[C@@H](COC)C(=O)N[C@@H](Cc1ccccc1)C(=O)[C@@]1(C)CO1`, the GI50 in the experiment on 786-0 renal is 50100 nM; with SF-268 CNS it was 48400 nM; with HS 578T breast it was 26500 nM; with COLO 205 colon, 37400 nM; in the experiment on SK-OV-3 ovarian it was greater than 94900 nM; in the experiment with MOLT-4 leukemia it was 23800 nM. Besides, the GI50 in the experiment with CAKI-1 renal was 38500 nM; in the experiment with T-47D breast it was 19900 nM; with HOP-92 NSCLC, 30300 nM; in the experiment on SK-MEL-2 melanoma it was 28700 nM. The TGI in the experiment on 786-0 renal, with SF-268 CNS, in the experiment on HS 578T breast, in the experiment on COLO 205 colon, in the experiment on SK-OV-3 ovarian and with MOLT-4 leukemia was greater than 100000 nM in each case. The TGI with CAKI-1 renal is greater than 100000 nM; in the experiment on T-47D breast, greater than 71200 nM; in the experiment on HOP-92 NSCLC it was greater than 82400 nM; in the experiment on SK-MEL-2 melanoma, greater than 91600 nM.
With `CCC(CC)n1cnc2c(-c3cnc(N)cn3)nc(N3CC4CCC(C3)O4)nc21`, the GI50 with 786-0 renal is 237 nM; in the experiment on SF-268 CNS it was 566 nM; in the experiment on HS 578T breast, 209 nM; with COLO 205 colon, 269 nM; with SK-OV-3 ovarian, 142 nM; with MOLT-4 leukemia, 322 nM. Besides, the GI50 in the experiment on CAKI-1 renal is 108 nM; in the experiment on T-47D breast, 23.3 nM; in the experiment with HOP-92 NSCLC, 13 nM; in the experiment on SK-MEL-2 melanoma, 391 nM. Further, the TGI in the experiment with 786-0 renal is greater than 100000 nM; in the experiment with SF-268 CNS it was greater than 100000 nM; with HS 578T breast it was 1610 nM; with COLO 205 colon, greater than 83000 nM; with SK-OV-3 ovarian it was 789 nM; with MOLT-4 leukemia it was 53400 nM. Further, the TGI with CAKI-1 renal came to 1730 nM; in the experiment with T-47D breast it was 217 nM; in the experiment on HOP-92 NSCLC, 145 nM; in the experiment on SK-MEL-2 melanoma, 3250 nM.
